The values that follow come from patent US20200405697A1, “Antitumor Agent” (Taiho Pharmaceutical Co., Ltd, priority 2017, published 2020).

Data set [1] addresses T1, human RNR (histidine tagged human M1 and human M2 proteins) (Homo sapiens, UniProt P23921).
T1 construct: made in house; host or cells: Escherichia coli
T1 sequence (P23921 1-792): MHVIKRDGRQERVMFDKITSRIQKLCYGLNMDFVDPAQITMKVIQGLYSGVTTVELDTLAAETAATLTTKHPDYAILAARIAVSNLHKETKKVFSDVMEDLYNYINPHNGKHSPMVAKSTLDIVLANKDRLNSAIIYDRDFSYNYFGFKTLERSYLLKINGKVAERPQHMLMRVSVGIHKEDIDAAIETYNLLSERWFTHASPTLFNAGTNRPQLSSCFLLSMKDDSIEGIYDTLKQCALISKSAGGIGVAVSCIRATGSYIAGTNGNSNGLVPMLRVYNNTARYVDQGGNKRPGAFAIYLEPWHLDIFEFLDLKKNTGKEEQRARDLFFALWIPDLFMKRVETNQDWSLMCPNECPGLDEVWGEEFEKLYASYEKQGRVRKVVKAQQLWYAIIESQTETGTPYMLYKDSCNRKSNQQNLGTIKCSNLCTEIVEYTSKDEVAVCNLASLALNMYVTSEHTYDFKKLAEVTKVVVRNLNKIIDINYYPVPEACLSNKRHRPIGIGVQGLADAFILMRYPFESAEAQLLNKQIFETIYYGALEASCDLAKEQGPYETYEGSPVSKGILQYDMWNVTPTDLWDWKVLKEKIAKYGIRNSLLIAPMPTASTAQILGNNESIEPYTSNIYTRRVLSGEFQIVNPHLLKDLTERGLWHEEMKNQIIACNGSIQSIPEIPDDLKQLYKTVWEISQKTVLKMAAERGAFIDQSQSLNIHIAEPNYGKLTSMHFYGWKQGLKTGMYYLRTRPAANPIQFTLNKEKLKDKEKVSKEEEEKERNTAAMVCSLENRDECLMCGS
Description: Human RNR inhibition effect (dCDP formation from CDP). It is filed as biochemical. The conditions noted are these: 10 μM CDP, 37° C. for 30 minutes, read-out: RNR inhibitory activity IC50. An outline of the steps: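 His-tagged human M1 (isoform 1) and N-terminal 59-aa-truncated M2 (isoform 2), E. coli-expressed, Ni-purified, preincubated 20 min with compound (1% DMSO). Reaction with 10 μM CDP, 2 mM ATP, 0.24 mM NADPH, 6 mM DTT, 4 mM Mg acetate, 100 mM KCl, 50 mM HEPES pH 7.2, 30 min at 37° C. dCDP formed quantified by reverse-phase HPLC after heat stop.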

The next data set has as its system MV-4-11. Description: Antitumor effect in human-derived blood cancer cell line (MV-4-11) subcutaneous transplantation model (in vivo). Further details: species or system nude mouse (BALB/cA Jcl-nu/nu). The conditions noted are these: oral, 100 mg/kg/day once per day for 14 days; RTV vs control group, Student-t test, p<0.05. As for the experimental part:
A human-derived blood cancer cell line MV-4-11 was transplanted subcutaneously into a nude mouse (BALB/cA Jcl-nu/nu, CLEA Japan, Inc.), and at the time when the tumor volume of the nude mouse on which the engrafted tumor reached 100 to 300 mm^3, four mice were assigned to each group by random stratification so that the average of the tumor volumes of each group was uniform (day 0), and the Example compound was orally administered daily at 100 mg/kg/day once per day for 14 days. Example Compound dosing solutions were prepared using 0.5% HPMC.
An electric balance for animals was used in body weight measurement. Rate of change in body weight on day n (BWCn) from body weight on day n (BWn) was calculated according to the following equation.
Rate of change in body weight BWCn (%)=(BWn−BW0)/BW0×100
Tumor volume (TV) was calculated according to the following equation by sandwiching and measuring the major axis and the minor axis with a digital caliper.
Tumor volume (mm^3)=Major axis (mm)×Minor axis (mm)×Minor axis (mm)/2
In order to compare the chronological transition of proliferation of tumor for the administration of each compound, relative tumor volume (RTV) setting the tumor volume at the time of grouping as 1 as the tumor proliferation rate was calculated according to the following formula, and the transition of the average value of RTV of each individual are shown in FIGS. 1 to 4.
RTV=(tumor volume at the day of tumor volume measurement)/(tumor volume at the time of the grouping)

In a further data set the test system is HCC 1806 cells. Description: Cell proliferation inhibitory effect on human breast cancer cell line. Format: cell-based. The following applies: HCC1806, 72 h, crystal violet, read-out: Cell growth suppression IC50. The protocol: (§1) Human derived breast cancer cell line HCC 1806 cells (American Type Culture Collection, ATCC) were daily passaged at a cell density not exceeding 80% in ATCC recommended Roswell Park Memorial Institute medium (RPMI-1640) containing 10% fetal bovine serum (FBS). In order to start the test of cell proliferation inhibitory activity, HCC 1806 cells were suspended in the above medium, after seeing at 180 μL in each well of a 96-well flat bottom plate so that the number of cells per well was 2,000, the cells were cultured at 37° C. for 1 day in an incubator containing 5% carbon dioxide gas.
(§2) On the next day, the Example compound was dissolved in DMSO, and 20 μL of a drug additive solution diluted serially with distilled water to 10 times of the final concentration was added to each well of the culture plate of the cells, and the cells were cultured at 37° C. for 72 hours in an incubator containing 5% carbon dioxide gas. After culturing for 72 hours, 20 μL of glutaraldehyde was added to each well and allowed to stand for 30 minutes, then the plate was washed 10 times with water and was dried. 100 μL of a stain solution (0.05% crystal violet in a 20% methanol solution) was added to each well and allowed to stand for 30 minutes, then the plate was washed 10 times with water and was dried. 100 μL of an extract solution (0.1 N NaH2PO4: 100% ethanol=1:1) was added to each well and mixed, and the mixture was measured at a wavelength of 540 nm using a plate reader (MTP-450 manufactured by Corona Electric Co., Ltd.).
(§3) The growth inhibition rate was calculated from the following formula, and the concentration (IC50 (μM)) of a compound inhibiting 50% was determined.
Growth inhibition rate (%){(C-B)−(T-B)}(C-B)×100
T: Absorbance of well to which Example compound was added
C: Absorbance of wells to which no Example compound was added
B: Absorbance of wells to which no cell was added

The test system of a further data set is GB-1 cells. Kind of data set: Cell proliferation inhibitory effect on human cancer cell lines: GB-1. It is filed as cell-based. The following applies: GB-1, Glioblastoma, DMEM + 10% FBS, 3000 cell/well. As for the experimental part:
as §1, §2, §3
According to the method of Test Example 2, the cell proliferation inhibitory effect on various cancer cell lines as described in Table 24 was evaluated. […]

Another data set has as its target T2, RNR (Homo sapiens, UniProt P31350).
T2 sequence (P31350 1-389): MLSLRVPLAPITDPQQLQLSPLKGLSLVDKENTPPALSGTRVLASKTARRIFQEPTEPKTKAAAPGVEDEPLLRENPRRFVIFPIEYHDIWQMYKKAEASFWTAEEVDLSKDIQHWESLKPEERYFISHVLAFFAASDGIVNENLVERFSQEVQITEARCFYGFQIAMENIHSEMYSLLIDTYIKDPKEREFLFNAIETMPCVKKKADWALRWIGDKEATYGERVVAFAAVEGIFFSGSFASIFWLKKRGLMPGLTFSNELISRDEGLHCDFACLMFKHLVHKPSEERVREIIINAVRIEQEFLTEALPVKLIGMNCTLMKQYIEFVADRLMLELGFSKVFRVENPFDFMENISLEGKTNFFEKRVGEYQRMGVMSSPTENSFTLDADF
The conditions noted are these: Non-Patent Document 7; cited from earlier work.

For data set [2] the following is noted: Non-Patent Document 10; cited from earlier work.
In data set [3] the test system is non-small cell lung cancer cell line. The following applies: combination with cytarabine or gemcitabine; Non-Patent Document 11; cited from earlier work.
In the next data set the test system is mouse leukemia models. The following applies: combination with etoposide or cisplatin; Non-Patent Document 12; cited from earlier work.

For the molecule `Cc1c(Cl)ccc(F)c1[C@@H](C)[C@H](NS(=O)(=O)c1ccc(Cl)c2c1OCCC2(C)O)c1n[nH]c(=O)o1` (single isomer, unassigned) [Example 209A], the concentration for half-maximal inhibition (IC50) (usually the concentration needed to halve the response being measured) in data set [1] worked out at 0.1 µM. For the same molecule, the “antitumor effect (relative tumor volume, RTV)” value in the data set on MV-4-11 was “antitumor effect”.
The like results for `Cc1c(Br)ccc(F)c1[C@@H](C)[C@H](NS(=O)(=O)c1ccc(Cl)c2c1OCCC2(C)O)c1n[nH]c(=O)o1` (single isomer, unassigned) [Example 222A] were, in that order, 0.08 µM and “antitumor effect”.
Taken in the same sequence, the figures for `Cc1ccc(F)c([C@@H](C)[C@H](NS(=O)(=O)c2ccc(Cl)c3c2OCCC3O)c2n[nH]c(=O)o2)c1C` (single isomer, unassigned) [Example 235A] were 0.08 µM and “antitumor effect”.
`CC(=O)OC1(C)CCOc2c(S(=O)(=O)N[C@H](c3n[nH]c(=O)o3)[C@H](C)c3c(F)ccc(C)c3C)ccc(Cl)c21` (stereo partly drawn) [Example 95, 5-chloro-8-(N-((1S,2R)-2-(6-fluoro-2,3-dimethylphenyl)-1-(5-oxo-4,5-dihydro-1,3,4-oxadiazol-2-yl)propyl)sulfamoyl)-4-methylchroman-4-ylacetate]: the concentration for half-maximal inhibition (IC50) (in data set [1]; in the data set with HCC 1806 cells) was 0.14 µM throughout.
As for `Cc1ccc(F)c([C@@H](C)[C@H](NS(=O)(=O)c2ccc(Cl)cc2C(N)=O)c2n[nH]c(=O)o2)c1C` [Example 5], the figures for the IC50 (in data set [1]; in the data set with GB-1 cells) were 0.14 µM and 1.57 µM, respectively. Moreover, the “antitumor effect (relative tumor volume, RTV)” value in the data set on MV-4-11 is reported as “antitumor effect”.
On to `Cc1c(Cl)ccc(F)c1[C@@H](C)[C@H](NS(=O)(=O)c1ccc(Cl)c2c1OCCC2(C)O)c1n[nH]c(=O)o1` (single isomer, unassigned) [Example 228A], for which the “antitumor effect (relative tumor volume, RTV)” value in the data set on MV-4-11 was “antitumor effect”.
`CCc1ccc(F)c([C@@H](C)[C@H](NS(=O)(=O)c2ccc(Cl)cc2C(N)=O)c2n[nH]c(=O)o2)c1C` [Example 11, 5-chloro-2-(N-((1S,2R)-2-(3-ethyl-6-fluoro-2-methylphenyl)-1-(5-oxo-4,5-dihydro-1,3,4-oxadiazol-2-yl)propyl)sulfamoyl)benzamide]: the 50% inhibitory concentration (IC50) in data set [1] was found to be 0.18 µM; in the data set on GB-1 cells it was 5.22 µM. The “antitumor effect (relative tumor volume, RTV)” value with MV-4-11 is given as “antitumor effect”.
`NC(=O)NO` [HU, hydroxyurea]: the RNR inhibitory activity result at RNR was “very weak”.
For `NC(=S)NN=Cc1ncccc1N` [Example 3-AP, 3-aminopyridine-2-carboxaldehyde thiosemicarbazone], the “side effects in clinical cases” value in data set [2] was “hypoxia, dyspnea, methemoglobinemia”. Also, the “cell proliferation inhibitory effect in combination” value in data set [3] is “enhancement in cell proliferation inhibitory effect”. Further, the “life extending effect in combination” value with mouse leukemia models was “enhancement in life extending effect”.
As for `[2H]C([2H])([2H])C1(O)CCOc2c(S(=O)(=O)N[C@H](c3n[nH]c(=O)o3)[C@H](C)c3c(F)ccc(Cl)c3C)ccc(Cl)c21` (single isomer, unassigned) [Example 228A], the IC50 in data set [1] was determined as 0.08 µM; in the data set with HCC 1806 cells, 0.14 µM.
In the case of `COc1c(S(=O)(=O)N[C@H](c2n[nH]c(=O)o2)[C@H](C)c2c(F)ccc(C)c2C)ccc(Cl)c1C(C)O` (stereo partly drawn) [Example 204, 4-chloro-N-((1S,2R)-2-(6-fluoro-2,3-dimethylphenyl)-1-(5-oxo-4,5-dihydro-1,3,4-oxadiazol-2-yl)propyl)-3-(1-hydroxyethyl)-2-methoxybenzenesulfonamide], the IC50 (in data set [1]; in the data set with HCC 1806 cells) was 0.15 µM each time.
In the case of `Cc1c(Cl)ccc(F)c1[C@@H](C)[C@H](NS(=O)(=O)c1ccc(Cl)cc1C(N)=O)c1n[nH]c(=O)o1` [Example 14, 5-chloro-2-(N-((1S,2R)-2-(3-chloro-6-fluoro-2-methylphenyl)-1-(5-oxo-4,5-dihydro-1,3,4-oxadiazol-2-yl)propyl)sulfamoyl)benzamide], the 50% inhibitory concentration (IC50) in data set [1] was found to be 0.25 µM. Besides, the “antitumor effect (relative tumor volume, RTV)” value in the data set on MV-4-11 is on record as “antitumor effect”.
